Structures are written as SMILES. “Also recorded” adds a separate entry of the source.

In assay [1] the test system is utrophin. As to the kind of experiment: Utrophin immunofluorescence in XLT (mdx) myotubes. Format: cell-based, mouse. The settings on record: 48 hours. As to the method:
(§1) A, a-h: normal cell line (NXTL). B, a′-h′: mdx cell line (XLT). The cell cultures were treated by exposure of the differentiated myotubes to drugs for 48 hours. A, a′: control cultures. B, b′: L-arginine(2.10^−3M). c, c′: SIN-1 (10^−3 M). d, d′: SIN-I (10^−3 M) +L-arginine (10^−3 M). e, e′: D-arginine (10^−3 M). f, f′: L-arginine (10^−3 M)+OQD (10^−5 M). g, g′: L-NMMA (10^−3 M). h, h′: hydroxyurea (10^−4 M).
(§2) Myotubes were obtained from normal cell line (NXLT) and mdx cell line as described by Liberona et al (1998, Muscle & Nerve, 21:902-909), and C2 myotubes as described by Inestrosa et al. (1983, Exp. Cell Res., 147:393-405).
(§3) In vitro. The cultures were treated as described previously with the exception of the second antibody labelled with fluoroscein which was diluted to 1/100 vol/vol. The incubation time was 2 hours for the first and second antibody.

In assay [2] the test system is utrophin. In words: Utrophin immunolocalisation in muscle of normal adult mice treated chronically with L-arginine. Format: in vivo, mouse. The following applies: normal adult C57 BL/6 mice, 200 mg/kg daily intra-peritoneal for three weeks, thigh muscles. Here is the method:
(§4) Three normal, adult mice aged 18 months (C57 BL/6 line) and three mdx mice were given a daily intra-peritoneal injection of 200 mg/kg L-arginine for three weeks. Two other groups of three adult mice were used as controls and were given a daily injection of physiological serum.
(§5) The mice were sacrificed by ether anaesthesia, the biceps femoris and the semi-tendinous muscles were quickly dissected from the hind limbs of each animal and frozen in liquid nitrogen.
(§6) In vivo. After cold fixing in methanol (−20° C. for 10 minutes) sections of […] were incubated for two hours with utrophin specific monoclonal antibody (NCL-DRP 2, Novacastra) (1/10 vol/vol) in PBS containing 0.1% saponin and 0.2% bovine albumin. The second antibody labelled with fluoroscein (N 1031, Amersham) was diluted (1/4000 vol/vol) in PBS containing 0.1% saponin and incubated for one hour.

In assay [3] the test system is utrophin. In words: Utrophin immunoblot of C2 myotubes. In kind it is cell-based, mouse. The following applies: 48 hours, 2.10^-3 M. Here is the method:
(§7) Imunoblot analysis of utrophin was conducted under control conditions (CTRL) and after 48 hours treatment with 2.10^−3 M L-arginine (L-arg).
as §2
(§8) The myotubes obtained from the NXLT, XLT and C2 lines were homogenized using a Polytron (Kinematica) in 10 mM Tris-HCl pH 6.8, 1% Triton X-100, 1% SOS, 0.5% sodium deoxycholate on ice. The quantity of total proteins was determined following the protocol for the bicinchoninic acid protein test (BCA, Pierce). Equivalent quantities of protein were separated by SOS-Page on 5% gel, then electrotransferred onto a nitrocellulose membrane (Schleicher & Schuell). The membranes were then incubated with the same monoclonal antibody directed against utrophin used for the immunofluorescence techniques (1/250 vol/vol). The fixed antibodies were detected with a Sanofi anti-mouse goat secondary antibody (1/5000 vol/vol) bound to horseradish peroxydase and developed by chemioluminescence reaction (ECL, Amersham Pharmacy Biotech).
In general terms: In western blotting, separated proteins are transferred to a membrane and probed.

Assay [4] has as its system utrophin. As to the kind of experiment: Utrophin immunoblot of XLT (mdx) myotubes. In kind it is cell-based, mouse. The following applies: 48 hours, 2.10^-3 M. As to the method:
as §7, §2, §8

Assay [5] relates to utrophin. As to the kind of experiment: Utrophin immunofluorescence in NXLT (normal) myotubes. In kind it is cell-based, mouse. The following applies: 48 hours. As to the method:
as §1, §2, §3

The test system of assay [6] is utrophin. As to the kind of experiment: Utrophin immunofluorescence in primary rat myotubes. In kind it is cell-based. Here is the method: as §3
The test system of assay [7] is utrophin. In words: Utrophin immunofluorescence in C2 myotubes. In kind it is cell-based, mouse. The following applies: C2 mice myotubes. Here is the method: Myotubes were obtained from normal cell line (NXLT) and mdx cell line as described by Liberona et al (1998, Muscle & Nerve, 21:902-909), and C2 myotubes as described by Inestrosa et al. (1983, Exp. Cell Res., 147:393-405). In vitro. The cultures were treated as described previously with the exception of the second antibody labelled with fluoroscein which was diluted to 1/100 vol/vol. The incubation time was 2 hours for the first and second antibody.

For assay [8], the system named is utrophin. In words: Utrophin immunolocalisation in muscle of mdx mice treated chronically with L-arginine. Format: in vivo, mouse. The settings on record: 200 mg/kg daily intra-peritoneal for three weeks, thigh muscles. Here is the method: as §4, §5, §6
Assay [9] concerns utrophin. In words: Utrophin immunoblot of NXLT myotubes. In kind it is cell-based, mouse. The settings on record: 48 hours, 2.10^-3 M. Here is the method:
as §7, §2, §8

The mark [10] stands for this setting: ODQ 10^-5 M with L-arginine 10^-3 M.

On to `N=C(N)NCCCC(N)C(=O)O` [L-arginine, 2-amino-5-guanidinovaleric acid], for which the utrophin labelling entry in the assay with utrophin [1] (2.10^-3 M) is listed as “utrophin labelling increased”; with utrophin [5] (2.10^-3 M) it was “utrophin labelling increased”; in the assay on utrophin [6], “increased labelling of utrophin was also observed to a lesser extent”; in the assay with utrophin [7], “increased labelling of utrophin was also observed to a lesser extent”. Moreover, the “utrophin at the sarcolemma (immunolocalisation)” value is “utrophin is seen under the sarcolemma; also recorded: utrophin was detected underneath the sarcolemma” in the assay with utrophin [2] and “increase in utrophin levels under the sarcolenima; also recorded: increased the utrophin level already present in the sarcolemma” in the assay with utrophin [8]. Further, the figures for the “utrophin level (Western blot)” value with utrophin [3], with utrophin [4] and in the assay on utrophin [9] were “increase in utrophin after treatment with L-arginine was confirmed”, “evident increase of utrophin” and “evident increase of utrophin”, respectively.
For the molecule `N=C(N)NCCC[C@@H](N)C(=O)O` [D-arginine], the utrophin labelling entry in the assay on utrophin [1] (10^-3 M) and in the assay with utrophin [5] (10^-3 M) was “absence of any effect” each time.
Turning to `CNC(=N)NCCC[C@H](N)C(=O)O` [L-NMMA, N^G-methyl-L-arginine], the utrophin labelling entry in the assay with utrophin [1] (10^-3 M) and in the assay on utrophin [5] (10^-3 M) was “basal level of utrophin” throughout.
Regarding `N=c1c[n+](N2CCOCC2)[n-]o1` [SIN-1, 3-morpholino-sydnonimine], the utrophin labelling entry is listed as “utrophin labelling increased” in the assay on utrophin [1] (10^-3 M), “utrophin labelling increased” in the assay on utrophin [5] (10^-3 M), “increased labelling of utrophin was also observed to a lesser extent” in the assay on utrophin [6] and “increased labelling of utrophin was also observed to a lesser extent” with utrophin [7].
For the molecule `O=c1onc2cnc3ccccc3n12` [ODQ], the “utrophin synthesis induced by NO (labelling)” value in the assay on utrophin [1] (setting [10]) and in the assay with utrophin [5] (setting [10]) was “inhibited” each time.
Regarding `NC(=O)NO` [hydroxyurea], the utrophin labelling result in the assay on utrophin [1] (10^-4 M) and in the assay with utrophin [5] (10^-4 M) was “increases utrophin labelling in remarkable manner” each time.

The values above are taken from patent US6872751B2, “Composition and method for augmenting or restoring the production of fetal protein in patient in need thereof” (Centre National de la Recherche Scientifique - CNRS, priority 1999, dated 2005).
